Data taken from patent US20250282742A1, “BENZOFURAN DERIVATIVES FOR TARGETING AUTOPHAGY” (Automera PTE. LTD, priority 2024, published 2025).

Tests used:
Recombinant p62 protein = target: T1, Recombinant p62 protein (Homo sapiens, UniProt Q13501); assay: Surface plasmon resonance (SPR) compound binding to immobilised p62; conditions: recombinant p62, 15° C
T1 construct: Recombinant p62 protein was buffer exchanged into Biacore SPR running buffer
Experimental: Example 28: Surface Plasmon Resonance (SPR) Analysis
Recombinant p62 protein was buffer exchanged into Biacore SPR running buffer (Cytiva 100671) using the Slide-A-Lyzer Mini Dialysis system 7K MWCO (Thermo Fisher Scientific, Cat no. 69560). The final protein concentration was determined using the Nanodrop One spectrophotometer (Thermo Fisher Scientific, cat no. ND-ONE-W), with calibration for the dialysis buffer.
The prepared protein was diluted in sodium acetate buffer (NaAc, pH 5.5, Cytiva) to concentrations ranging from approximately 0.25-40 μg/mL. Post-immobilization, the protein required approximately 16 hours of equilibration in running buffer supplemented with 1% DMSO at 15° C. to ensure adequate surface equilibration and protein reorganization.
All SPR experiments were conducted at a constant temperature of 15° C. The SPR chip surface was activated using EDC/NHS for a contact time of 6-10 min at a flow rate of 10 μL/min. This was followed by protein immobilization for 2100 seconds and ethanolamine capping for 420 seconds, both at the same flow rate. Immediately after immobilization, the NH2—REEE peptide was analyzed in Single Cycle Kinetics mode (SCK) to verify surface activity, ensuring it binds the sample with the published affinity (−20 μM by SPR).
For general compound binding studies, experiments were performed at 15° C. using a running buffer composed of 10 mM HEPES, 150 mM NaCl, 1 mM DTT, 0.05% Tween 20, and 1% DMSO at pH 7.4. The test compound was initially prepared at a 20 mM concentration in DMSO and subsequently titrated in 2-fold dilutions. For each assay, 2 μL of the compound was mixed with 198 μL of the running buffer, and the mixture was thoroughly pipetted approximately 15 times for homogenization.
A series of blank injections (0 μM concentration) were included for double referencing, with at least 8 or 16 per plate depending on the format. Typical injection parameters were 120 seconds for association and 180 seconds for dissociation at a flow rate of […]. A four-point solvent correction was prepared with DMSO concentrations ranging from 2% to 0.5% in the buffer. Post each compound injection, the system's needles were washed with 50% DMSO.
Analysis of the SPR data was conducted using the Cytiva Evaluation software. The binding levels at the late time-point of each interaction were corrected for reference, then normalized to percentage bound values to account for variations in immobilization levels, protein molecular weight, and compound molecular weight.
Compound binding studies were carried out according to experimental procedures above and SPR % occupancy was determined and summarized in Table 7.

[1] = system: p62 oligomers in HeLa cells; assay: p62 oligomerization assay (Western blot, 24 h treatment); type: cell-based; conditions: fold change of p62 oligomer levels relative to DMSO control
Experimental: HeLa cells were seeded in 6-well plates (700,000 cells) and allowed to adhere overnight. Media was replaced one hour before administering either vehicle (DMSO) or test compounds. After 24 hours of treatment, the media was discarded, and cells were rinsed once with ice-cold 1×PBS before detached from plates with ice-cold RIPA Lysis and Extraction Buffer (Thermo Fisher Scientific) which was supplemented with protease and phosphatase inhibitors. The resulting cell suspensions were transferred to pre-chilled microcentrifuge tubes, incubated on ice for 20 min with intermittent mixing and then centrifuged at 12,000 rpm for 20 min at 4° C. The supernatants were then aspirated slowly and transferred into new tubes kept on ice. The protein concentration in the samples was determined using BCA kit (Thermo Fisher Scientific) as per manufacturer's instructions.
For the p62 oligomerization and LC3 lipidation assays, cell lysates were prepared using RIPA buffer supplemented with 2% SDS and benzonase (Sigma). The lysates were then combined with 4× Laemmli protein sample buffer (Bio-Rad), heated at 70° C. for 10 min and subjected to a brief centrifugation of 10-15 seconds.
For p62 oligomerization and LC3 lipidation assays, lysates containing 30 μg of protein and for BRD4 and FKBP12(F36V) degradation assays, lysates containing 20 μg of protein, were loaded slowly into the wells of 4-20% gradient Tris-glycine gels (Bio-Rad). The gels were run at 100V until completion and transferred onto PVDF membranes. Membranes were blocked using 5% milk in TBS-Tween (0.1%) buffer at room temperature for 1 hour. The membranes were incubated with primary antibody in 5% milk-TBST with shaking, overnight at 4° C. The primary antibodies used were: p62 (Novus Biologicals 2C11, H00008878-MO1), LC3A/B (Cell Signalling Technology D3U4C, 12741S), FKBP12 (Abcam ab24373), BRD4 (Cell Signalling Technology E2A7X, 13440S), GAPDH (Cell Signalling Technology D4C6R, 97166S), and β-Actin (Proteintech 66009-1-Ig). Following primary antibody incubation, membranes were washed thrice with TBST 10 min before and after incubation with secondary-HRP conjugated antibody in 5% milk-TBST for 1 hour at room temperature. The secondary antibodies used were: Anti-Mouse IgG HRP Conjugate (Promega W4021B) and Anti-Rabbit IgG HRP Conjugate (Promega W4011B). For the p62 oligomerization assay, the total protein levels were assessed using Ponceau staining (Thermo Fisher Scientific) of PVDF membrane as per recommendation by manufacturer's guidelines.
Imaging was acquired using SuperSignal™ West Pico PLUS Chemiluminescent Substrate (Thermo Fisher Scientific) with iBright Invitrogen FL100 imaging system. Band signal intensity, reflective of protein concentrations, were quantified using Invitrogen™ iBright™ Analysis and Image J software.
HeLa cells were treated with compounds for 24 hours to evaluate the effect of these compounds on p62 oligomerisation activity. The resulting changes in levels of p62 oligomers were assessed by Western blotting, as described in experimental procedures. The fold change of p62 oligomer levels induced by compound treatment relative to vehicle control (DMSO) was determined and summarized in Table 8. Specifically, FIGS. 2A-C show Western blot images and their corresponding quantification showing the levels of high molecular weight (100-200 kDa) p62 oligomers by 24 hours compound treatments at listed concentrations, relative to vehicle control (DMSO) in HeLa cells. Protein loading consistencies was assessed by Ponceau staining (not shown).

T1 sequence (Q13501 whole entry, species assumed): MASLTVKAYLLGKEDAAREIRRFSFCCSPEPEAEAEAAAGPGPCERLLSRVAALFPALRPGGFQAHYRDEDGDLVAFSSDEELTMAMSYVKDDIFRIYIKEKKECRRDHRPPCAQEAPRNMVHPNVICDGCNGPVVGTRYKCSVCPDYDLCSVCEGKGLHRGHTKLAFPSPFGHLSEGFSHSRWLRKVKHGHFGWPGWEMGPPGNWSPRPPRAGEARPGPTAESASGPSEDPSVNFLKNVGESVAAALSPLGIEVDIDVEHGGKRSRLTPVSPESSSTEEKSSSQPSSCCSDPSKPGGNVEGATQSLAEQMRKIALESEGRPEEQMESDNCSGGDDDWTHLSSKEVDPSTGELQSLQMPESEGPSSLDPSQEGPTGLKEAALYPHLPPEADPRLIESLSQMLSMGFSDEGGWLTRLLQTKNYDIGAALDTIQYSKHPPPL

SMILES	receptor occupancy at 100 µM (Recombinant p62 protein)	p62 oligomerization [1]
OCCNCc1ccc2cc(-c3ccccc3)oc2c1 [Compound 2, 2-(((2-phenylbenzofuran-6-yl)methyl)amino)ethan-1-ol]	30 to 70%	++ (> 2-fold change relative to DMSO control)
OCCNCc1ccc2cc(Cc3ccc(Cl)cc3)oc2c1 [Compound 13, 2-(((2-(4-chlorobenzyl)benzofuran-6-yl)methyl)amino)ethan-1-ol]	> 70%	++ (> 2-fold change relative to DMSO control)
Cc1c(Cc2ccccc2)oc2cc(CNCCO)ccc12 [Compound 42, 2-(((2-benzyl-3-methylbenzofuran-6-yl)methyl)amino)ethan-1-ol]	30 to 70%	+ (< 2-fold change relative to DMSO control)
OCCNCc1ccc2cc(CCc3ccc(F)cc3)oc2c1 [Compound 49, 2-(((2-(4-fluorophenethyl)benzofuran-6-yl)methyl)amino)ethan-1-ol]	30 to 70%	++ (> 2-fold change relative to DMSO control)
OCCNCc1ccc2cc(Cc3ccccc3)oc2c1 [compound 1]	< 30%	+ (< 2-fold change relative to DMSO control)
OCCNCc1ccc2cc(Cc3ccc(F)cc3)oc2c1 [compound 12]	> 70%	++ (> 2-fold change relative to DMSO control)
